These results are taken from patent US11389456B2, “Compounds and methods for treating oxalate-related diseases” (OxaluRx, Inc., priority 2018, dated 2022).

SMILES strings stand for the structures. pIC50: −log10 of the molar value. In brackets after ≈: the same amount, converted by molar mass.

Data set [1] concerns the target recombinant full-length human hydroxyacid oxidase 1 (HAO1), the equivalent of hGOX (Homo sapiens (Human), UniProt Q9UJM8). As to the kind of experiment: In-vitro human glycolate oxidase (hGOX) assay (Amplex red/HRP fluorescence). It counts as biochemical.
Procedure: Biological Activity Assay: In-Vitro Human Glycolate Oxidase (hGOX) Assay
The in-vitro glycolate oxidase assay was performed using recombinant full-length human hydroxyacid oxidase 1 (HAO1), the equivalent of hGOX. […] Purified HAO1 was dissolved in assay buffer consisting of 10 mM NaCl, 110 mM KCl, 2 mM MgCl2, 50 mM HEPES (pH 7.4) and 0.01% Triton™ X-100.
In data set [2] the target is glycolate oxidase (GOX) in HepaRG-CAR cells (Homo sapiens (Human), UniProt Q9UJM8). In words: HepaRG-CAR cell-based assay for quantitation of glycolate oxidase inhibition (cellular glycolate flux, GC-MS). To be noted: HepaRG-CAR cells, 500 μM glycolate, 48 hours incubation; read-out: IC50.
Data set [3] in a line: Stability in human plasma. Type of data set: in vitro ADME. To be noted: read-out: Plasma Stability T1/2. In outline: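 Pooled human plasma (pH 7.4-8) at 37° C, test compound spiked from a 0.02 mM solution in phosphate buffer with 0.5% BSA. Samples taken at 0, 5, 15, 30, 45 and 60 min, quenched with acetonitrile containing internal standard, and remaining compound measured by LC/MS.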

Data set [4] in a line: Metabolic stability in human liver microsomal preparation. To be noted: pH 7.4, human liver microsomes, NADPH, 37° C. It counts as in vitro ADME. In outline: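 Compound at 1.5 μM with 0.75 mg/mL human liver microsomes (concentrations before NADPH addition) in 0.1 M potassium phosphate, 1 mM EDTA, pH 7.4 was preincubated 5 min at 37 °C, then started with NADPH. Samples at 0, 5, 15, 30 and 45 min were quenched with acetonitrile/internal standard and analysed by LC/MS.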

A short description of data set [5]: Solubility in aqueous solution (deionized, distilled water). It counts as physicochemical. The following applies: kinetic from dmso stock, 1% DMSO, read-out: Aqueous Solubility H2O. In a few lines:
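DMSO stock (10 mM) diluted into 100 mM phosphate buffer pH 7.4, or into deionized distilled water for the aqueous assay, at 1% final DMSO and shaken 1 h at room temperature. After centrifugation, supernatants quantified by LC-MS/MS against a calibration curve with internal standard.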

Chain of glycolate oxidase (GOX) in HepaRG-CAR cells (Q9UJM8 whole entry): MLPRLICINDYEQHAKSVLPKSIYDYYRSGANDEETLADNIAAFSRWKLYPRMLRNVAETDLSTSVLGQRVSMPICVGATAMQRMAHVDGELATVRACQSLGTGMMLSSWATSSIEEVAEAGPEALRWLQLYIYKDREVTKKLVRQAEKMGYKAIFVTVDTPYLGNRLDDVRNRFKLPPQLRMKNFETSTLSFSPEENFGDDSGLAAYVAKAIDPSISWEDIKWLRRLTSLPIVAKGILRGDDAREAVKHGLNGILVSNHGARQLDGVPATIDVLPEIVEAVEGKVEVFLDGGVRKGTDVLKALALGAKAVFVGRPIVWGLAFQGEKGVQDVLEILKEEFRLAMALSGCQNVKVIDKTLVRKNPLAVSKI
Chain of recombinant full-length human hydroxyacid oxidase 1 (HAO1), the equivalent of hGOX (Q9UJM8 whole entry): as above

With `O=C(O)c1nn[nH]c1Sc1ccc(Cl)cc1` [Example I-001, 5-((4-chlorophenyl)thio)-1H-1,2,3-triazole-4-carboxylic acid], the pIC50 (in general, −log10 of the IC50, conventionally taken in molar units) is 6.96 in data set [1] and 6.00 in data set [2]. Further, the half-life at 2 μM in data set [3] came out at 0.706 h. Further, the CLint scaled (in general, the capacity of the preparation to metabolise the compound, expressed as a volume cleared per time) at 1 μM in data set [4] came to 1.19 mL/min/kg. The half-life at 1 μM in data set [4] (0-45 min, read-out: Metabolic Stability t1/2) was determined as 24.3 h. Moreover, the solubility – broadly, the dissolved amount per volume that the medium holds – at 1 h in data set [5] amounted to 83.8 µM (≈ 21.4 µg/mL).
